Data from paper PMC11784359 (Antimicrobial Agents and Chemotherapy, 2024).
Values after ≈ are worked out from the molar mass of the structure shown. Values joined by “and” are separate entries in the source; they are usually repeats but may differ in a detail not shown here. Equal entries are not always repeated. Where two headings read alike, the source gives them in different places. Marks after values point to notes of the source that are not given here.

Legend:
[1] = system: B. pseudomallei strain K96243; parameters: species or system Burkholderia pseudomallei; details: in vivo
[2] = system: Burkholderia pseudomallei; experiment: microbe, parasite or virus in culture; format: cell-based
[3] = system: Pseudomonas aeruginosa ATCC 27853; experiment: microbe, parasite or virus in culture; format: cell-based
[4] = system: Escherichia coli ATCC 25922; experiment: microbe, parasite or virus in culture; format: cell-based
[5] = system: Staphylococcus aureus ATCC 29213; experiment: microbe, parasite or virus in culture; format: cell-based
[6] = system: Escherichia coli, Klebsiella pneumoniae, and Pseudomonas aeruginosa; details: cited from earlier work
biothreat pathogens = format: cell-based
[7] = mouse, in vivo
[8] = mouse, in vivo; remark: listed apart in the source

CC(C)(O/N=C(\C(=O)N[C@@H]1C(=O)N2C(C(=O)[O-])=C(C[n+]3ccccc3)CS[C@H]12)c1csc(N)n1)C(=O)O [Ceftazidime, ceftazidime, reference compound]
Survival log-rank (Mantel–Cox) test P [1]: <0.0001^a | day average body weight started to decline again [1]: 11 days | day mean body weight began to recover [1]: > 5 days | survival at the end of the 29-day observation phase [1]: 20% | survival during the treatment phase [1]: 70% | MIC50 [2]: 2 µg/mL (≈ 3.66 µM) | MIC90 [2]: 8 µg/mL (≈ 14.6 µM) | MIC ([2]; NCTC4845): 2 µg/mL (≈ 3.66 µM) | MIC ([3]; Pseudomonas aeruginosa, ATCC27853): 1 µg/mL (≈ 1.83 µM) | MIC ([4]; Escherichia coli, ATCC25922): 0.12 µg/mL (≈ 0.22 µM) | MIC ([5]; Staphylococcus aureus, ATCC29213): 8 µg/mL (≈ 14.6 µM)

C[C@@](O)(C(F)F)[C@H](NC(=O)c1ccc(C#CC#CC2CC2)cc1)C(=O)NO [LPC-233]
P, rescue of mice from infection in comparison with the vehicle [1]: < 0.0001 | average body weight after recovery [1]: maintained a steady average weight to the end of the study | bacterial burden in the lungs at study termination compared to ceftazidime-treated animals [1]: reduction of CFUs in the lungs | day average body weight declined again [1]: 15 days and 25 days | day mean body weight began to recover (turning point) [1]: 4 days and 2 days | final survival rate at the end of the observation period [1]: 60% and 80% and 90% | median time to death [1]: 6.3 days | recovery of average body weight [1]: did not recover | survival [1]: did not support survival | survival during the treatment phase [1]: 100% | P range, survival/times to death versus the ceftazidime group ([1]; 30 mg/kg): 0.001–0.05 | time following the last dose without deaths ([1]; 30 mg/kg): 15 days | Survival log-rank (Mantel–Cox) test P ([1]; 90 mg/kg): 0.5 | Survival log-rank (Mantel–Cox) test P ([1]; ip, 90 mg/kg): <0.0001^a and 0.009^a | Survival log-rank (Mantel–Cox) test P ([1]; po, 10 mg/kg): <0.0001^a and 0.008^a | Survival log-rank (Mantel–Cox) test P ([1]; po, 30 mg/kg): <0.0001^a and 0.05^a | Survival log-rank (Mantel–Cox) test P ([1]; po, 90 mg/kg): <0.0001^a and 0.001^a | predicted MIC shift based on plasma protein unbound fraction [6]: ~ 30 fold | shift of MIC values in the presence of 50% mouse plasma [6]: 4–9 fold | MIC [3]: 0.25 µg/mL (≈ 0.664 µM) | MIC [4]: ≤0.008 µg/mL | MIC90 values for biothreat pathogens, folds lower than previous compounds such as ACHN-975 (biothreat pathogens): 4–8 folds | Clearance [7]: 14.7 mL/min/kg | period plasma concentration remained above MIC90 [7]: ≥ 24 h | AUCELF (0–48 h) ([7]; 100 mg/kg): 334.6 µg·h/mL | AUCplasma (0–48 h) ([7]; 100 mg/kg): 398.6 µg·h/mL | ELF penetration (AUCELF/AUCplasma, 0–48 h) ([7]; 100 mg/kg): 83.9% | MIC [5]: >16 µg/mL | concentration of the drug in ELF samples ([8]; 30 mg/kg): 100 to 400 ng/mL | increase in AUC, 100 mg/kg IP compared to oral 100 mg/kg ([8]; 100 mg/kg): 2 fold | increase in Cmax, 100 mg/kg IP compared to oral 100 mg/kg ([8]; 100 mg/kg): 2 fold | Inf fT > MIC (free time above MIC) ([8]; ip, 100 mg/kg): ≥6 h | Inf fT > MIC (free time above MIC) ([8]; po, 10 mg/kg): ≥6 h | Inf fT > MIC (free time above MIC) ([8]; po, 30 mg/kg): ≥6 h | Inf fT > MIC (free time above MIC) ([8]; po, 100 mg/kg): ≥6 h
